According to patent publication US8673882B2, “Inhibitors of autotaxin” (University of Tennessee Research Foundation, priority 2011, dated 2014):
“Also recorded” adds a separate entry of the source.

Experiments:
NPP6 = molecular target: T1, NPP6 (Homo sapiens, UniProt Q6UWR7); assay: NPP-6 inhibition assay (pNPPC substrate); assay type: biochemical; details: 10 μM compound; 8.3 nM enzyme; 10 μM pNPPC; read-out: NPP6 Activity, % control (10 μM)
T1 sequence (Q6UWR7 23-419): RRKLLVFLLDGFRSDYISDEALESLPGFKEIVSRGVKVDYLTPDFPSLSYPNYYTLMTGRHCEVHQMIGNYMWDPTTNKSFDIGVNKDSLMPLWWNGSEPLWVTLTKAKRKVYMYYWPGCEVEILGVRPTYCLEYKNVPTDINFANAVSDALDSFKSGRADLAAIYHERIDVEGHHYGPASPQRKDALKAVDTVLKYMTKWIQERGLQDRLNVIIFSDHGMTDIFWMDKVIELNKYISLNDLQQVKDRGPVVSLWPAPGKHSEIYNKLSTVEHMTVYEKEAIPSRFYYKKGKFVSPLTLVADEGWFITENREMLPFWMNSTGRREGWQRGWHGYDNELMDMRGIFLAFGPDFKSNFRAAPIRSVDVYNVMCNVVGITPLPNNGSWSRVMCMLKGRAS
Experimental: (§1) NPP6 and NPP7 are the only NPP isoforms other than ATX that are known to utilize lysophospholipid phosphodiesters as substrates. Therefore, the specificity of the chemical compounds of the invention regarding ATX was addressed by determining the activity of NPP6 and NPP7 in the presence and absence of these analogs.
(§2) Inhibition of NPP6 and NPP7 was evaluated using recombinant, purified proteins, the synthetic substrate para-nitrophenylphosphocholine (pNPPC) and a Synergy II plate reader (BioTek, Winooski, Vt.). The final concentration of each enzyme was 8.3 nM and pNPPC was 10 μM. All analogs were tested at single 10 μM concentrations. Absorbance of liberated para-nitrophenol at 405 nm was determined up to 1 hour (where responses were linear) and was normalized to vehicle control.

NPP7 = molecular target: T2, NPP7 (Homo sapiens, UniProt Q6UWV6); assay: NPP-7 inhibition assay (pNPPC substrate); assay type: biochemical; details: 10 μM compound; 8.3 nM enzyme; 10 μM pNPPC; read-out: NPP7 Activity, % control (10 μM)
T2 sequence (Q6UWV6 22-458): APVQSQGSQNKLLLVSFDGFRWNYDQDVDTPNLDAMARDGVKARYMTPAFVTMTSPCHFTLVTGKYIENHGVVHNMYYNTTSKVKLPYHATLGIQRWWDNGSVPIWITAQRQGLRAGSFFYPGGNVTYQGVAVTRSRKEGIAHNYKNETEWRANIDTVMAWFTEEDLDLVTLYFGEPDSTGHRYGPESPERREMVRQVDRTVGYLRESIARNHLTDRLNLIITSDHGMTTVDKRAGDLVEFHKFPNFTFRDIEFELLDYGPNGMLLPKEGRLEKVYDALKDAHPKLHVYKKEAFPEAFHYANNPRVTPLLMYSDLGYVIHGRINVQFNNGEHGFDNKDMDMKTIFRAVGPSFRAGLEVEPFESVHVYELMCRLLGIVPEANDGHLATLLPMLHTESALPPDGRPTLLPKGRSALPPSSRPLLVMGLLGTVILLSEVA
Experimental: as §1, §2

[1] = tested on: MM1 hepatocarcinoma cells; assay: Invasion of mesothelial cell monolayer by MM1 cells; assay type: cell-based, rat; details: with LPC; FIG. 12 panel E
Description: Cancer metastasis is a complex process that cannon be accurately modeled in vitro. Models that utilize cellular monolayers for the invasion of carcinoma cell come the closest to the situation in vivo. Two different cell monolayers, mouse mesothelium and human vascular endothelium were used to examine the role of ATX in the invasion of MM1 hepatocarcinoma cells and the reduction of such invasion by the chemical compounds of the present application. The mesothelial monolayer is an accepted model for invasion of body cavities lined by serous cells whereas, the HUVEC monolayer is considered to be an in vitro model of hematogenous invasion of carcinomas.
Highly invasive MM1 cells originally isolated from the AH130 rat hepatoma cells were utilized in these studies. The cells were grown in suspension in DMEM supplemented with 10% fetal bovine serum, 2 mM glutamine, 100 units/ml penicillin and 10 μg/ml streptoinycin. Mesothelial cells were isolated and cultured from C57BL/6 mice. Human umbilical cord vascular endothelial cells (HUVEC) were obtained from VEC Technologies Inc., (Rensselaer, N.Y., USA) and were grown in MCDB-131 complete medium containing 10% fetal bovine serum. 90 μg/ml heparin, 10 ng/ml EGF, 1 μg/ml hydrocortisone, 0.2 mg/ml EndoGrowth supplement, 100 units/ml penicillin G, 100 μg/ml streptomycin and 25 μg/ml amphotericin B (all from VEC Technologies). Tumor cell invasion was performed by seeding 1.3×10^5 HUVECs (passage 7) into each well of a 12-well plate pre-coated with 0.2% gelatin (Sigma) and cultured for 2 days to form a confluent monolayer. Mesothelial cells harvested from two-three mice were initially plated in 6-well plates and grown to confluency in DMEM medium supplemented with 10% fetal bovine serum in the presence of 100 units/ml penicillin G and 10 μg/ml streptomycin. When confluent, the mesothelial cells were split into three equal aliquots (˜5×10^4 cells each) and plated to three wells of a 12-well plate and grown to confluence.
Invasion of MM1 cells of Example 53 was determined and the effect of compounds of the present application in reducing the invasion was determined. For all invasion assays, MM1 cells were pre-stained with 2 μg/ml calcein AM (Invitrogen, USA) for 2 h, rinsed once, and seeded at a density of 5×10^4 cells/well over the monolayers. […] The number of tumor cells that penetrated the monolayer was photographed under a NIKON TiU inverted microscope using phase-contrast and fluorescence illumination in a minimum of five non-overlapping fields at 100× magnification. The fluorescent images were overlayed on top of the phase contrast images using the Elements BR software (version 3.1x) and the invaded MM1 cells showing the characteristic flattened morphology in the plane of focus underneath the monolayer were counted. […]

| Compound | remaining activity at 10 µM (NPP6) | remaining activity at 10 µM (NPP7) | MM1 cell invasion of the mesothelial monolayer [1] |
| --- | --- | --- | --- |
| CCCCCCCCCCCCCCCc1ccc(CP(=O)(O)O)cc1 [Compound 22, 4-Pentadecylbenzylphosphonic acid] | 96.5% | 96.7% | inhibited; also recorded: inhibition |
| CCCCCCCCCCC/C=C/c1ccc2cc(CP(=O)(O)O)ccc2c1 [Compound 30b, (E)-6-Tridec-1-enyl-naphthalen-2-yl-methylphosphonic acid] | 104% | 96.5% | inhibited |
